From patent US8927280B2, “Compositions and methods for promoting the generation of definitive endoderm” (President and Fellows of Harvard College, priority 2009, dated 2015)
“Also recorded” adds a separate entry of the source.

Tests used:
[1] = system: gut tube of E8.75 mouse embryos; experiment: Injection of compound induced endoderm into gut tube of E8.75 mouse embryos, ex vivo embryo culture; assay type: in vivo; details: for incorporation of induced endodermal cells into gut tube (in words): FoxA2, Cldn6 and YFP staining; for embryos in which induced cells integrated into the gut: cells treated 6 days, injected into E8.75 embryos, 24-30 hrs ex vivo culture
Method: Mouse E8.5 ICR embryos were dissected in Hanks Balanced Salt Solution and cultured in the DMEM/F12 (Invitrogen) media supplemented with 50% rat serum (Valley Biomedical), penicillin, streptomycin, glutamine at 37° C. for 20-24 hrs. The YFP mouse ES cells were cultured in the presence of hit compounds for 6 days to induce endoderm formation and then cells were dissociated with trypsin and approx. 100 000 cells were injected into gut tube of E8.75 embryos. Following injections, embryos were transferred to rotating bottle culture unit and were then cultured in media (1.5-2 ml per embryo) as above under humidified conditions at 40% O2, 5% CO2, 55% N2, and 37° C. After 30 hrs culture, embryos were fixed in 4% paraformaldehyde in PBS, embedded in tissue-tek and cryosections were stained with antibodies against Cld6, FoxA2 an YFP.
For chemically derived endoderm to be useful, it is important to determine its developmental potential, beyond the expression of endodermal markers. The ultimate goal is to direct the cells to form functional beta cells. To begin to address this possibility and functional potential of derived populations, mouse ES cells ubiquitously expressing enhanced yellow fluorescent protein (EYFP) (Hadjantonakis et al., 2002) were induced to form endoderm with IDE1, IDE2, or DMSO (control). At day 6 of treatment, the inventors dissociated and injected the cells into the gut tube (a derivative of endoderm) of live E8.75 embryos. The lumen of the gut tube can be accessed prior to the completion of embryonic turning and gut tube closure and therefore provides a developmental window for functional assessment of ES-derived endoderm cells. Chemically derived endoderm was injected into the primitive gut tube at the anterior and posterior intestinal portals. At this time the gut tube is still open and anterior intestinal portal is accessible (FIG. 6A). The embryos were cultured ex vivo for 24-30 hrs during which time the lateral walls of the embryonic gut fold ventrally and the gut tube closes, around E9.5. […] Cells induced by IDE1 treatment integrated into the gut, in 8 out of 35 cases, and in 7 out of 29 embryos for IDE2. Conversely, DMSO (control) treated cells never integrate into the developing gut tube (0/10 and 0/11, respectively) and instead remain in the lumen (FIG. 6B).

mouse ES cells = experiment: Extra-embryonic endoderm markers and morphology of induced Sox17+ cells (immunostaining); assay type: cell-based; details: for morphology of induced Sox17+ cells: immunostaining with α-Sox17 antibody; for expression of extra-embryonic endoderm (EE) markers GATA4, SPARC, AFP, Dab2 in induced Sox17+ cells: mouse ES cells, immunostaining
Method: Cells were fixed in 4% paraformaldehyde (Sigma) in PBS for 20 min at 4° C. followed by a wash with PBS. Cells were blocked with 10% donkey serum (Jackson Immunoresearch) in PBS/0.1% Triton X and incubated with primary antibodies overnight at 4° C. Secondary antibodies were incubated for 1 h at room temperature. The following antibodies and dilutions were used: goat anti-SOX17, (1:500 R&D systems); rabbit anti-PDX1 (1:200, Chemicon), rabbit anti-FoxA2 (1:500; Upstate), rabbit anti-Dab2 (1:200, Santa Cruz), rabbit anti-SPARC (1:200, Santa Cruz,), mouse anti-AFP (1:100, Sigma), anti-Gata6 (1:50, Santa Cruz Biotech), goat anti-HNF6 (1:200, Santa Cruz Biotech), rabbit anti-RFP/DsRed (1:300, MBL), rabbit anti-GFP (1:200, Molecular Probes). Secondary antibodies were: rhodamine Red-X-conjugated donkey anti-goat antibody, 1:200 (JIRL), Alexa-488-conjugated goat anti-mouse and Alexa-594-conjugated goat anti-rabbit antibodies (1:300, Molecular Probes). Nuclei were visualized by Hoechst 33342 (1:1000, Molecular Probes). Images were taken using an Olympus IX70 Microscope. For quantification images were analyzed for the frequency of SOX17+, FoxA2+ or Pdx1+ cells using Metamorph image analysis software (Molecular Devices) and at least 6 images per well were collected. Data were confirmed in four independent experiments.
During evaluation of primary hit compounds, the inventors observed that small molecules induced Sox17+ cells with two distinct morphologies. One class, including IDE1 and IDE2, induced clustered populations of Sox17+ cells, whereas other compounds led to the formation of a dispersed population of Sox17+ cells. […] Sox17 is expressed in definitive endoderm, but also in extra-embryonic endoderm, and in other germ layer derivatives at later stages of development including vascular endothelium (Kanai-Azuma et al., 2002; Matsui et al., 2006). Since the positive identification of definitive endoderm is hindered by the lack of unique markers that are expressed exclusively there, and not present in other types of endoderm, the inventors performed a negative selection and tested for markers of extra-embryonic endoderm. It was found, that the vast majority (>95%) of the dispersed Sox17+ cells (class II) also expressed extra-embryonic endoderm markers including Gata4 (Morrisey et al., 1996), SPARC (Mason et al., 1986), AFP (Dziadek, 1979) and Dab2 (Yang et al., 2002) (Suppl. FIG. 2B).

| SMILES | incorporation of induced endodermal cells into gut tube (in words) [1] | embryos in which induced cells integrated into the gut [1] | morphology of induced Sox17+ cells (mouse ES cells) | expression of extra-embryonic endoderm (EE) markers GATA4, SPARC, AFP, Dab2 in induced Sox17+ cells (mouse ES cells) |
| --- | --- | --- | --- | --- |
| O=C(O)CCCCCC(=O)N/N=C/c1ccccc1C(=O)O [IDE1] | incorporate into gut tube and show expression of gut tube markers | 8 out of 35 | compact, epithelial sheet | marginal expression of EE markers; also recorded: no or a negligible number of cells positive for extra-embryonic markers |
| O=C(O)CCCCCC(=O)NN=C1CCCC1 [IDE2] | incorporate into gut tube and show expression of gut tube markers | 7 out of 29 | compact, epithelial sheet | only rarely detected; also recorded: no or a negligible number of cells positive for extra-embryonic markers |
